From patent publication US20260193668A1, “NOVEL PEPTIDES AND USE THEREOF FOR MODULATING PROTEIN ACCUMULATION” (UNIVERSITE TOULOUSE III - PAUL SABATIER, priority 2022, published 2026)

What was measured:
[1] = tested on: EIN2; assay: Quantification of EIN2 by Western blot in A. thaliana leaves; format: in vivo, Arabidopsis thaliana; conditions: A. thaliana leaves treated for 5 days with 100 μM peptide
Description: (§1) (a) Schematic representation of a gene encoding altORFs producing altPEPs. (b) ORF ranking distribution of altPEPs detected by MS. (c) Frequency of altPEPs detected by MS by length ranges. (d) Main root length of A. thaliana seedlings treated with 100 μM peptide for 4 days. (e, f) Quantification of DCL1 expression by RT-qPCR (e) and Western blot using anti-DCL1 antibodies (f) in A. thaliana leaves treated for 5 days with 100 μM peptide. (g, h) Quantification of COI1, AP2, CPK3 (g) and EIN2 (h) by Western blot using specific antibodies in A. thaliana leaves treated for 5 days with 100 μM peptide.
(§2) N. benthamiana plants were treated by spraying the leaves 24 h before harvesting. For Luc assays, 100 μL of MS/2 liquid medium containing the peptides was added to each well. 5 μL of luciferin was added and luciferase activity was read 30 min later using a spectrophotometer. All other assays were performed by spraying or watering the plants. To quantify the protein level induced by cPEPs in Arabidopsis, rosettes were sprayed daily with 100 μM of peptide or its control for 5 days. Leaves were harvested 6 h after the last treatment for western blot analysis. […] Chlorophyll content was measured using the SPAD chlorophylometer (Konica Minolta). Leaf area was measured using ImageJ software. […]

[2] = tested on: EIN2 mRNA; assay: Quantification by qRT PCR of EIN2 expression in treated plants; format: in vivo, Arabidopsis thaliana; conditions: 100 μM peptide
Description: (§3) Quantification by qRT PCR of the expression of different genes in response to 100 μM of different peptides
(§4) (a) Treatment of plants with the peptide AtCOI1alt1; (b) Treatment of plants with the peptide AtAP2alt1; (c) Treatment of plants with the peptide AtEIN2alt1 (d) Treatment of plants with the peptide AtCPK3alt1.
(§5) Quantification of mRNAs was performed by qRT-PCR using appropriate primer pairs selected from the sequences: SEQ ID NOs: 367 to 374. Expression levels for the controls were set at 100. The primers used for the A. euteiches assays are described in Camborde et al (New Phytol. 233:2232-2248. 2022).

[3] = tested on: AP2; assay: Quantification of AP2 by Western blot in A. thaliana leaves; format: in vivo, Arabidopsis thaliana; conditions: A. thaliana leaves treated for 5 days with 100 μM peptide
Description: as §1, §2

[4] = tested on: AP2 mRNA; assay: Quantification by qRT PCR of AP2 expression in treated plants; format: in vivo, Arabidopsis thaliana; conditions: 100 μM peptide
Description: as §3, §4, §5

[5] = tested on: A. thaliana seedlings; assay: Heat shock resistance test on A. thaliana seedlings; format: in vivo, Arabidopsis thaliana; conditions: 100 μM peptide, 45° C. for 45 min
Description: (§6) (a, b) Length of primary roots of A. thaliana seedlings treated with a Scrambled cPEPdcl1 or with a cPEPdcl1. (c) Relative chlorophyll content of A. thaliana seedlings treated with the corresponding peptide. (d) Resumption of growth of A. thaliana seedlings after heat shock at 45° C. for 45 min and treated with the corresponding peptide. (e) Relative lesion area of A. thaliana seedlings infected with B. cinerea and treated with the indicated peptide. (f) Measurement of the flowering day of A. thaliana plants treated with the indicated peptides. (g, h) Flowering day of A. thaliana plants treated with an irrelevant peptide or a mixture of cPEPs (targeting EIN2, BR11, BAK1 and WUS). (i, j) Leaf area of A. thaliana plants treated with an irrelevant peptide or a mixture of cPEPs (targeting EIN2, BR11, BAK1 and WUS).
N. benthamiana plants were treated by spraying the leaves 24 h before harvesting. For Luc assays, 100 μL of MS/2 liquid medium containing the peptides was added to each well. 5 μL of luciferin was added and luciferase activity was read 30 min later using a spectrophotometer. […] To quantify the protein level induced by cPEPs in Arabidopsis, rosettes were sprayed daily with 100 μM of peptide or its control for 5 days. […] Chlorophyll content was measured using the SPAD chlorophylometer (Konica Minolta). Leaf area was measured using ImageJ software. […]

[6] = tested on: A. thaliana seedlings; assay: Main root length of A. thaliana seedlings treated with altPEP; format: in vivo, Arabidopsis thaliana; conditions: A. thaliana seedlings treated with 100 μM peptide for 4 days
Description: as §1
To study the biological roles of altPEPs, two types of altPEPs were studied: one well conserved among Brassicaceae, and corresponding to the altORF18 of the DCL1 gene (FIG. 3c), and another, corresponding to the first altORF of the COI1 gene, but not conserved among Brassicaceae. A. thaliana seedlings were treated with the peptide AtDCL1alt18 (SEQ ID NO: 224) and root development analysed, since dcl mutants show longer main roots (Park, W., et al. Curr. Biol. 12, 1484-1495 (2002)).

[7] = tested on: DCL1 mRNA; assay: Quantification of DCL1 expression by RT-qPCR in A. thaliana leaves; format: in vivo, Arabidopsis thaliana; conditions: A. thaliana leaves treated for 5 days with 100 μM peptide
Description: as §1, §5
N. benthamiana plants were treated by spraying the leaves 24 h before harvesting. […] 5 μL of luciferin was added and luciferase activity was read 30 min later using a spectrophotometer. […] To quantify the protein level induced by cPEPs in Arabidopsis, rosettes were sprayed daily with 100 μM of peptide or its control for 5 days. […] Chlorophyll content was measured using the SPAD chlorophylometer (Konica Minolta). Leaf area was measured using ImageJ software. […]

[8] = tested on: DCL1; assay: Western blot using anti-DCL1 antibodies in A. thaliana leaves; format: in vivo, Arabidopsis thaliana; conditions: A. thaliana leaves treated for 5 days with 100 μM peptide
Description: as §1, §2

[9] = tested on: A. thaliana seedlings; assay: Length of primary roots of A. thaliana seedlings treated with cPEP; format: in vivo, Arabidopsis thaliana; conditions: versus Scrambled cPEPdcl1
Description: as §6
The work then focused on different A. thaliana proteins involved in different plant functions. […] 12:479-492, 2000), improved the viability of seedlings to heat shock (FIG. 7d). In parallel, several A. thaliana plant defence regulators were targeted, namely AGB1 (SEQ ID NO: 195), MAPKKK3 (SEQ ID NO: 187), JAR1 (SEQ ID NO: 192), MAPKKK5 (SEQ ID NO: 188), ABCG34 (SEQ ID NO: 194) and CPK3 (SEQ ID NO: 162). […] Next, several cPEPs were designed targeting different proteins involved in plant development by measuring the day of flowering. […]

[10] = tested on: M. truncatula roots; assay: Quantification of nodules on M. truncatula roots; format: in vivo, Medicago truncatula; conditions: versus irrelevant peptide
From the text: (a) FRET-FLIM analysis of the interaction between cPEPnsp1-FAM and NSP1 (left) or NSP1ΔcPEP (right) in planta. (b) qRT-PCR quantification of NSP1 expression in M. truncatula roots treated with cPEPnsp1 or Scrambled cPEPnsp1. (c) GUS quantification of peptide-treated M. truncatula roots carrying the Pro NSP1-NSP1-GUS fusion. (d, e) Quantification of NSP1 expression in N. benthamiana leaves after infiltration of different constructs: ‘wild type’ i.e. version of NSP1 wherein the cPEP sequence has been deleted (NSP1 ΔcPEP) or version of NSP1 wherein the cPEP sequence has been replaced by an artificial sequence (NSP1 ΔcPEP-cPEPartificial), with an empty vector (control) or cPEPnsp1 or cPEPartificial. (f, g) Formation of lateral roots of M. truncatula WT seedlings, nsp1 or overexpressing NSP1, in response to cPEPnsp1 or Scrambled cPEPnsp1. (h, i) Quantification of nodules on roots of M. truncatula roots treated with an irrelevant peptide or cPEPskl. […]
In order to verify whether cPEPs can target any protein, the activity of 12 cPEPs targeting 12 different proteins for which antibodies were available was studied and validated in three different plant species. The question was whether the increase in the quantity of proteins observed after treatment with cPEP was sufficient to modulate plant development. […]

Substance: AtEIN2alt1 (MGCKYRRRCSFRV; AtEIN2alt1)
- EIN2 protein level (Western blot) [1]: increase
- EIN2 mRNA expression (qRT PCR) [2]: without detecting any change

Substance: AtAP2alt1 (MGISYLGLWETSLLRWI; AtAP2alt1)
- AP2 protein level (Western blot) [3]: increase
- AP2 mRNA expression (qRT PCR) [4]: without detecting any change

Substance: cPEPhsp101 (MQDMLNSLLCI; cPEPhsp101) [SEQ ID NO: 404, cPEP targeting the A. thaliana HSP101 protein]
- viability of seedlings to heat shock [5]: improved

Substance: AtDCL1alt18 (MLMLNPPRHHGILQRPTCLSLLLTIRLWNP; AtDCL1alt18)
- root development (main root length) [6]: decrease in root development
- DCL1 mRNA expression (qRT-PCR) [7]: no effect
- DCL1 protein accumulation (Western blot) [8]: increased

Substance: cPEPdcl1 (SRAFGSVFFSGD; cPEPdcl1)
- primary root growth [9]: reduction

Substance: cPEPskl (TETVGHEDAS; cPEPskl)
- amount of nodules [10]: decrease
